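Following 48 hours of exposure in 96-well plates, responses at five concentrations were used to interpolate endpoints linearly. GI50: concentration for 50% inhibition of growth. TGI: total growth inhibition.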

One test concerns OVCAR-3 ovarian. Briefly: NCI tumour cell line growth inhibition, 48 h.
As for `O=C1NC(=O)C2C(=O)NC(=O)C1C2Cc1ccco1` (stereo unspecified), the TGI was > 100 µM.
As to `S=C1SCN(Cc2ccccc2)CN1Cc1ccco1`, the GI50 is 3.98 µM and the TGI amounted to 15 µM.
Regarding `O=C(c1cccs1)c1c(C(F)(F)F)n([O-])c2cc(Cl)c(Cl)cc2[n+]1=O`, the GI50 was 0.668 µM and the TGI was determined as 1.82 µM.
Turning to `COc1ccc2nc(NC(=O)C(=O)CC(=O)c3ccc([N+](=O)[O-])cc3)sc2c1`, the TGI was > 100 µM.
The same measure, in the same setting: under `CC(=O)Nc1ccc(C2CC(c3ccc([N+](=O)[O-])cc3)=Nc3ccccc3S2=O)cc1` (stereo unspecified) stands 54.7 µM.
As to `COCCOC1=C(Cl)C(=O)c2ccccc2C1=O`, the GI50 is 1.66 µM and the TGI worked out at 3.06 µM.
With `CN1CCN(c2c(F)cc(NC3=C(Cl)C(=O)c4ncccc4C3=O)cc2F)CC1`, the GI50 was 0.303 µM and the TGI stood at 1.37 µM.
As for `Cc1cccc(Cn2cc(CO)c3cnccc32)c1`, the GI50 is 40.1 µM and the TGI is > 100 µM.
On to `O=C(CCCC(=O)Nc1ccc(Cl)cc1Cl)CC(=O)c1ccc2ccccc2c1`, for which the TGI is > 100 µM.
In the case of `OC(c1ccccc1Br)(c1ccccc1Br)C(F)(F)F`, the TGI was found to be 51.7 µM.
Still for that read-out and setting: under `CC(=O)OC1COC(N2CCc3cc([N+](=O)[O-])ccc32)C(OC(C)=O)C1OC(C)=O` (stereo unspecified) stands > 100 µM.
In the case of `CCOC(=O)C1S(=O)(=O)OCCOS1(=O)=O`, the TGI is > 100 µM.
For the molecule `COc1ccc(C(O)c2cc3c(N)c(C(=O)Nc4cccc5ccccc45)sc3nc2C)cc1` (stereo unspecified), the GI50 is 2.53 µM and the TGI came to 7.5 µM.
For the molecule `CCCC(=O)CC(C)C(=O)C(=O)NC12CC3CC(CC(C3)C1)C2` (stereo unspecified), the TGI is > 100 µM.

Another test has as its system SK-MEL-28 melanoma. Briefly: NCI tumour cell line growth inhibition, 48 h.
Turning to `CCOC(=O)C1(C)CCC(C(C(=O)O)C(=O)O)CC1=O` (stereo unspecified), the TGI is > 100 µM.
On to `COC(=O)C1=C(C(=O)OC)C2(c3ccccc3)OC1(c1ccccc1)c1cc3ccccc3cc12`, for which the TGI was 3.82 µM.
As for `[O]=[V]([OH])([OH])[OH]`, the GI50 was > 100 µM and the TGI was > 100 µM.
Regarding `CC1NOC(=O)C1N=Nc1ccc(Cl)cc1Cl` (stereo unspecified), the TGI was > 100 µM.
Take `COc1ccc(Nc2cnc3cc(N)cc(N)c3n2)cc1`: the GI50 is 21.2 µM and the TGI came to 44.8 µM.
Consider `COc1cc(/C=C/c2cc(/C=C/c3ccc(O)c(OC)c3)n(C(=O)c3ccccc3Br)n2)ccc1O`, for which the GI50 is 2.57 µM and the TGI was determined as 8.71 µM.
Regarding `O=C1NC(=O)C2C(=O)NC(=O)C1C2Cc1ccco1` (stereo unspecified), the TGI is > 100 µM.
For the molecule `S=C1SCN(Cc2ccccc2)CN1Cc1ccco1`, the GI50 is 5.75 µM and the TGI worked out at 20.1 µM.
For `O=C(c1cccs1)c1c(C(F)(F)F)n([O-])c2cc(Cl)c(Cl)cc2[n+]1=O`, the GI50 was 1.88 µM and the TGI was 4.61 µM.
As to `COc1ccc2nc(NC(=O)C(=O)CC(=O)c3ccc([N+](=O)[O-])cc3)sc2c1`, the TGI was > 100 µM.
Still for that read-out and setting: under `CC(=O)Nc1ccc(C2CC(c3ccc([N+](=O)[O-])cc3)=Nc3ccccc3S2=O)cc1` (stereo unspecified) stands 43.7 µM.
As for `COCCOC1=C(Cl)C(=O)c2ccccc2C1=O`, the GI50 was 3.22 µM and the TGI amounted to 10.9 µM.
The corresponding values for `CN1CCN(c2c(F)cc(NC3=C(Cl)C(=O)c4ncccc4C3=O)cc2F)CC1` are 6.47 µM and 19 µM.
Take `Cc1cccc(Cn2cc(CO)c3cnccc32)c1`: the GI50 is > 100 µM and the TGI was > 100 µM.
Regarding `O=C(CCCC(=O)Nc1ccc(Cl)cc1Cl)CC(=O)c1ccc2ccccc2c1`, the TGI was > 100 µM.
`OC(c1ccccc1Br)(c1ccccc1Br)C(F)(F)F` displayed a TGI of 95.5 µM.
On to `CC(=O)OC1COC(N2CCc3cc([N+](=O)[O-])ccc32)C(OC(C)=O)C1OC(C)=O` (stereo unspecified), for which the TGI is > 100 µM.
Turning to `CCOC(=O)C1S(=O)(=O)OCCOS1(=O)=O`, the TGI is > 100 µM.
Consider `Cc1nc2ccccc2c(=O)n1/N=C(\N=Nc1ccccc1Cl)c1ccccc1Cl`, for which the TGI is > 100 µM.
With `CCCC(=O)CC(C)C(=O)C(=O)NC12CC3CC(CC(C3)C1)C2` (stereo unspecified), the TGI is > 100 µM.
For the molecule `CCCCCC/C=C\CCCCCCCCC(=O)c1cccc(OC)c1OC`, the TGI is > 100 µM.

The subject of a further test is RPMI-8226 leukemia. Briefly: NCI tumour cell line growth inhibition, 48 h.
For `CCOC(=O)C1(C)CCC(C(C(=O)O)C(=O)O)CC1=O` (stereo unspecified), the TGI is > 100 µM.
Molecule `COC(=O)C1=C(C(=O)OC)C2(c3ccccc3)OC1(c1ccccc1)c1cc3ccccc3cc12` gave a TGI of 4.19 µM.
For `COc1ccc(Nc2cnc3cc(N)cc(N)c3n2)cc1`, the GI50 is 4.53 µM and the TGI came to 25.7 µM.
The corresponding values for `COc1cc(/C=C/c2cc(/C=C/c3ccc(O)c(OC)c3)n(C(=O)c3ccccc3Br)n2)ccc1O` are 2.05 µM and 6 µM.
For the molecule `O=C1NC(=O)C2C(=O)NC(=O)C1C2Cc1ccco1` (stereo unspecified), the TGI was > 100 µM.
Take `COc1cc(-c2nccc3[nH]c(-c4ccc5cc[nH]c5c4)nc23)cc(OC)c1OC`: the GI50 is 0.0448 µM and the TGI is 5.16 µM.
Consider `COc1ccc2nc(NC(=O)C(=O)CC(=O)c3ccc([N+](=O)[O-])cc3)sc2c1`, for which the TGI is > 100 µM.
On to `CC(=O)Nc1ccc(C2CC(c3ccc([N+](=O)[O-])cc3)=Nc3ccccc3S2=O)cc1` (stereo unspecified), for which the TGI stood at 20.5 µM.
With `COCCOC1=C(Cl)C(=O)c2ccccc2C1=O`, the GI50 was 2.31 µM and the TGI came to 6.75 µM.
Regarding `Cc1cccc(Cn2cc(CO)c3cnccc32)c1`, the GI50 is 3.82 µM and the TGI amounted to 72.9 µM.
For `CC(=O)OC1COC(N2CCc3cc([N+](=O)[O-])ccc32)C(OC(C)=O)C1OC(C)=O` (stereo unspecified), the TGI was > 100 µM.
On to `CCOC(=O)C1S(=O)(=O)OCCOS1(=O)=O`, for which the TGI is > 100 µM.
`COc1ccc(C(O)c2cc3c(N)c(C(=O)Nc4cccc5ccccc45)sc3nc2C)cc1` (stereo unspecified): the GI50 was 4.17 µM and the TGI is > 100 µM.
On to `Cc1nc2ccccc2c(=O)n1/N=C(\N=Nc1ccccc1Cl)c1ccccc1Cl`, for which the TGI was > 100 µM.
Take `CCCC(=O)CC(C)C(=O)C(=O)NC12CC3CC(CC(C3)C1)C2` (stereo unspecified): the TGI was > 100 µM.
`CCCCCC/C=C\CCCCCCCCC(=O)c1cccc(OC)c1OC`: the TGI is > 100 µM.
